“And” between values parts separate entries of the source, which are not always exact repeats. Equal entries are not always repeated.
Tests used:
Type in all cases: in vivo, human
IL-10 = assay: Phase 1 clinical trial, inflammatory marker IL-10; details: excluding #7
Protocol: (§1) A phase 1 clinical trial was conducted with huperzine A. The primary aim of the study was to conduct a proof-of-principle assessment of the safety and tolerability and early stage pharmacokinetics of dietary supplement Huperzine A up to 6.4 mg/day as add-on, open-label therapy in 8 subjects with drug-resistant epilepsy. The hypothesis was that Huperzine A in 8 subjects with drug-resistant epilepsy as add-on; open-label therapy would be well tolerated when titrated from 1.6 mg/day up to 6.4 mg/day. The secondary aim was to acquire preliminary data on the parasympathetic effect of Huperzine A on cardiac function.
(§2) The trial was a single-center, in-patient, open-label, dose-escalation study conducted at one site. This study would enroll up to 10 adults (≧18 years to 65 years) to obtain 8 randomized subjects with drug-resistant epilepsy that were not well controlled with 1 to 3 concomitant anti-epileptic drugs (AEDs).
(§3) Eight subjects with drug-resistant epilepsy were provided huperzine A. Six subjects completed the study. Doses were varied as in Table A. Doses were six hours apart. Subjects 1-3 began dosing at 18:00, subjects 4-8 began dosing at 12:00.
(§4) Table B provides biomarker test results. Baseline, peak and change values represented as mean±the standard error of the mean (SEM). Statistical data is included for all subjects excluding subject #7 because that subject was on a conflicting medication. Peak represents peak plasma level or, if unavailable, the nearest values for all values except cardiological markers where peak represents Day 2. The p-values were calculated from one-sided paired t tests.

TNF-alpha = assay: Phase 1 clinical trial, inflammatory marker TNF-alpha; details: excluding #7
Protocol: as §1, §2, §3, §4

[1] = Phase 1 clinical trial, renal marker eGFR (creatinine clearance rate); details: excluding #7
Protocol: as §1, §2, §3, §4

IL-1 beta = assay: Phase 1 clinical trial, inflammatory marker IL-1 beta; details: excluding #7
Protocol: as §1, §2, §3, §4

[2] = Phase 1 clinical trial, peak plasma level of huperzine A
Protocol: as §1, §2
The study drug was supplied as 0.200 mg tablets and dispensed by the study site's pharmacy. Huperzine A tablets derived from Huperzia serrata were sourced from a commercially available supplier in the United States.
Randomly chosen tablets of the supplied trial medication, as well as a composite have been assessed for purity by an independent laboratory using standard analytic techniques (HPLC) and found to contain between 0.145 mg and 0.166 mg of Huperzine A per tablet. Subject dosing was based on the label potency of the tablets (i.e. 0.200 mg). Tablets were randomly assigned to each subject in a dosing bottle container containing 120 tablets per subject. Each bottle was labeled with a study identifier. subject ID, dose of each tablet, dosing instructions, expiration date, and lot number.
as §3

MCP-1 = assay: Phase 1 clinical trial, marker MCP-1
Protocol: as §1, §2, §3, §4
Monocyte chemotactic protein-1 (MCP-1) as a marker is implicated in pathogeneses of several diseases characterized by monocytic infiltrates. MCP-1 is involved in the neuroinflammatory processes that take place in the various diseases of the central nervous system, which are characterized by neuronal degeneration. MCP-1 expression in glial cells is increased in epilepsy, brain ischemia, Alzheimer's disease, some encephalomyelitis, and traumatic brain injury.

[3] = Phase 1 clinical trial, ECG recording of cardiac function (heart rate, HRV, TWA, QT, VPB, VT); details: for T-wave alternans (TWA): all leads; for TWA elevated: in the normal range
Protocol: as §1, §2, §3
Heart rate, heart rate variability. T-wave alternans, QT interval, ventricular premature beats, and ventricular tachycardia were studied in all 8 subjects enrolled in the study. […] This individual experienced transient peaks in heart rate and a few ventricular premature beats, probably due to an emesis-related surge in sympathetic nerve activity. […] ECG recordings show a transient disconnect in subjects one.

IL-6 [4] = assay: Phase 1 clinical trial, inflammatory marker IL-6 (Labcorp, different test center); details: excluding #7
Protocol: as §1, §2, §3, §4

IL-6 [5] = assay: Phase 1 clinical trial, inflammatory marker IL-6 (IITR1); details: excluding #7
Protocol: as §1, §2, §3, §4

IL-17 = assay: Phase 1 clinical trial, inflammatory marker IL-17; details: excluding #7
Protocol: as §1, §2, §3, §4

CRP = assay: Phase 1 clinical trial, cardiologic marker CRP
Protocol: as §1, §2, §3, §4

[6] = Phase 1 clinical trial, renal marker serum creatinine
Protocol: as §1, §2, §3, §4

[7] = peak vs baseline, mean ± SEM, excluding #7
[8] = 8 subjects, full recording period
[9] = 8 subjects, full recording period, listed as huperzine

For C/C=C1\[C@H]2C=C(C)C[C@]1(N)c1ccc(=O)[nH]c1C2 [Huperzine A, (1R,9,13E)-1-amino-13-ethylidene-11-methyl-6-azatricyclo[7.3.1.0^2,7]trideca-2(7),3,10-trien-5-one], the “IL-10 Peak” value (IL-10; mean ± SEM, at peak plasma level, baseline 7.3 ± 2.7) was 8.8 ± 1.5 pg/mL, the “IL-10 % Change” value (IL-10; peak vs baseline) was 21% and the “IL-10 Change” value (IL-10; peak vs baseline, mean ± SEM) was 1.6 ± 1.6 pg/mL. For the same molecule, the “TNF-alpha Peak” value (TNF-alpha; mean ± SEM, at peak plasma level, baseline 1.6 ± 0.4) was 1.3 ± 0.4 pg/mL, the “TNF-alpha % Change” value (TNF-alpha; peak vs baseline) was −15% and the “TNF-alpha Change” value (TNF-alpha; peak vs baseline, mean ± SEM) was -0.2 ± 0.1 pg/mL. For the same molecule, the “eGFR (flow rate) Peak” value ([1]; mean ± SEM, at peak plasma level, baseline 98.3 ± 23.5) was 107.6 ± 13.4 mL/min/1.73, the “eGFR (flow rate) % Change” value ([1]; peak vs baseline) was 9% and the “eGFR (flow rate) Change” value ([1]; peak vs baseline, mean ± SEM) was 9.3 ± 12.7 mL/min/1.73. The “IL-1 beta Peak” value (IL-1 beta; mean ± SEM, at peak plasma level, baseline 23.9 ± 12.4) was 30.0 ± 9.8 pg/mL, the “IL-1 beta % Change” value (IL-1 beta; peak vs baseline) was 26% and the “IL-1 beta Change” value (IL-1 beta; peak vs baseline, mean ± SEM) was 6.1 ± 5.2 pg/mL. For the same molecule, the “Peak Plasma” value ([2]; Subject 1, oral tablets, 4 doses 0.40-0.80 mg six hours apart) was 2.6 ng/mL, the “Peak Plasma” value ([2]; Subject 2, 3 doses 0.40-0.80 mg six hours apart) was 6.7 ng/mL and the “Peak Plasma” value ([2]; Subject 3, 12 doses 0.40-0.80 mg six hours apart) was 9.6 ng/mL. For the same molecule, the “Peak Plasma” value ([2]; Subject 4, 11 doses 0.40-0.60 mg six hours apart) was 11.8 ng/mL, the “Peak Plasma” value ([2]; Subject 5, 13 doses 0.40-0.80 mg six hours apart) was 12.9 ng/mL and the “Peak Plasma” value ([2]; Subject 6, 13 doses 0.40-0.60 mg six hours apart) was 15.9 ng/mL. The “Peak Plasma” value ([2]; Subject 7, 13 doses 0.40-0.60 mg six hours apart) was 13.2 ng/mL, the “decrease in levels of MCP-1” value (MCP-1; from an average of 175.2±43.5 pg/mL) was 15% and the “MCP-1 Peak” value (MCP-1; mean ± SEM, excluding #7, at peak plasma level, baseline 175.2 ± 43.5) was 148.9 pg/mL and 148.9 ± 26.3 pg/mL. The “MCP-1 % Change” value (MCP-1; peak vs baseline, excluding #7) was −15%, the “MCP-1 Change” value (MCP-1; [7]) was -26.3 ± 28.6 pg/mL and the “T-wave alternans (TWA)” value [3, 8] was “generally low in all leads”. For the same molecule, the “T-wave alternans (TWA)” value [3, 9] was “low TWA levels”, the QTc interval ([3]; 8 subjects, corrected using Bazett's formula) was “none of the 8 subjects in the study exhibited an increase in QTc interval” and the “episodes of ventricular tachycardia” value ([3]; 8 subjects, entire recording period) was “no episodes of ventricular tachycardia occurred in any of the 8 subjects”. The Heart rate [3, 8] was “stable throughout the recordings in all but one subject”, the QT interval [3, 8] was “unaltered” and the “ventricular premature beat (VPB) count” value [3, 8] was “low”. For the same molecule, the Heart rate [3, 9] was 7 of the 8 subjects exhibited stable heart rates, the “heart rate variability, low frequency/high frequency (LF/HF) ratio” value ([3]; 8 subjects, full recording period, normal range about 1 to about 4) was “stable” and the cardiac electrical activity ([3]; after huperzine administration) was “remains normal”. For the same molecule, the LF/HF ratio trend ([3]; during the first 6 hours of recording) was “trend toward lowering of the LF/HF ratio”, the TWA elevated ([3]; subject 1007) was “about 25 μV” and the “increase in heart rate” value ([3]; subject only, apparently related to emesis) was “about 120 beats/min”. The TWA elevated ([3]; subject two, during final 120-beat/min heart rate surge) was “about 30 μV”, the “IL-6 (Labcorp) Peak” value (IL-6 [4]; mean ± SEM, at peak plasma level, baseline 1.8 ± 1.2) was 4.2 ± 2.4 pg/mL and the “IL-6 (Labcorp) % Change” value (IL-6 [4]; peak vs baseline) was 133%. For the same molecule, the “IL-6 (Labcorp) Change” value (IL-6 [4]; peak vs baseline, mean ± SEM) was 2.4 ± 2.6 pg/mL, the “IL-6 (IITR1) Peak” value (IL-6 [5]; mean ± SEM, at peak plasma level, baseline 1.3 ± 0.2) was 2.8 ± 0.7 pg/mL and the “IL-6 (IITR1) % Change” value (IL-6 [5]; peak vs baseline) was 115%. For the same molecule, the “IL-6 (IITR1) Change” value (IL-6 [5]; peak vs baseline, mean ± SEM) was 1.5 ± 1.5 pg/mL, the “IL-17 Peak” value (IL-17; mean ± SEM, at peak plasma level, baseline 35.1 ± 17.7) was 36.1 ± 19.2 pg/mL and the “IL-17 % Change” value (IL-17; peak vs baseline) was 3%. For the same molecule, the “IL-17 Change” value (IL-17; peak vs baseline, mean ± SEM) was 1.0 ± 1.0 pg/mL, the “decrease in CRP” value (CRP; from an average of 2.6±3.0 mg/L, p-value 0.02) was 29% and the “CRP Peak” value (CRP; mean ± SEM, subjects excluding #7, peak = Day 2, baseline 2.6 ± 3.0) was 1.8 ± 2.3 mg/L. The “CRP % Change” value (CRP; peak vs baseline, excluding #7) was −29%, the “CRP Change” value (CRP; [7]) was -0.7 ± 0.8 mg/L and the “decrease in serum creatinine” value ([6]; from an average of 0.9 mg/dL, p-value 0.02) was 18%. The “Serum creatine Peak” value ([6]; mean ± SEM, excluding #7, at peak plasma level, baseline 0.9 ± 0.3) was 0.7 ± 0.1 mg/dL, the “Serum creatine % Change” value ([6]; peak vs baseline, excluding #7) was −18% and the “Serum creatine Change” value [6, 7] was -0.2 ± 0.2 mg/dL.
